Results on two compounds are retold here after US12084437B2, “Halo-substituted piperidines as orexin receptor modulators” (AstraZeneca AB, priority 2016, dated 2024).

Series [1] has as its target T1, OX1 (Homo sapiens, UniProt O43613).
T1 construct: expressed in transfected cells; host or cells: CHO (CHO-OX1)
T1 sequence (O43613 1-425): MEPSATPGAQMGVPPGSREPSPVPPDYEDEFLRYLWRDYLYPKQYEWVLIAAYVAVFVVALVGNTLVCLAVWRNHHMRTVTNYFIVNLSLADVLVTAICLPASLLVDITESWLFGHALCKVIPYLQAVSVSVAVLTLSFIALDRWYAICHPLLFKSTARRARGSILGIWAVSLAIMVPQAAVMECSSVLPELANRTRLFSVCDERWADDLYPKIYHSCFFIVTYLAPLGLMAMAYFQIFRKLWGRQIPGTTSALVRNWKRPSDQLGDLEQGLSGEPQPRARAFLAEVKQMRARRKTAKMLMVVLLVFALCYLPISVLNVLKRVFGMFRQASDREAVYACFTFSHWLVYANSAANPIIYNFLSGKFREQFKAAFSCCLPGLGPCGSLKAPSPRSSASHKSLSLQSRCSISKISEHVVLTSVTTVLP
In words: Orexin receptor cell-based functional assay, [Ca2+]i by FLIPR, CHO-OX1 cells. The following applies: FLIPR calcium, antagonism of EC90 of [OX], read-out: OXI, IC50.

Series [2] deals with T2, OX2 (Homo sapiens, UniProt O43614).
T2 construct: expressed in transfected cells; host or cells: CHO (CHO-OX2)
T2 sequence (O43614 1-444): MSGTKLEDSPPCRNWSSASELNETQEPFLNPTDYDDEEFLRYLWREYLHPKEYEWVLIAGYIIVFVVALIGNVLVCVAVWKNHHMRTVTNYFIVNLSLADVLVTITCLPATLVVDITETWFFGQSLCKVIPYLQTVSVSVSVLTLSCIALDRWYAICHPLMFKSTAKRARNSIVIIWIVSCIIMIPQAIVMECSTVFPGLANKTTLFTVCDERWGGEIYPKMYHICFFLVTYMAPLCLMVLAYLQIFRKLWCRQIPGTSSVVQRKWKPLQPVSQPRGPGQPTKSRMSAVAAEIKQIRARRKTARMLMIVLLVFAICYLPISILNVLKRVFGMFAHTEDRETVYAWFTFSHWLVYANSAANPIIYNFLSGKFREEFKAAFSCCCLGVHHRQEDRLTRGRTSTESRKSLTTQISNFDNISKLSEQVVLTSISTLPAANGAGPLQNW
In words: Orexin receptor cell-based functional assay, [Ca2+]i by FLIPR, CHO-OX2 cells. Conditions: FLIPR calcium, antagonism of EC90 of [OX]. An outline of the steps:
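CHO cells expressing human OX1 or OX2 (20,000/well, grown overnight) were loaded with Calcium6 dye plus 2.5 mM probenecid for 2 h at 37 °C, then preincubated 30 min with compound (0.1 nM–10 µM). FLIPR fluorescence (ex 488/em 540 nm) was tracked before and after an EC90 orexin challenge.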

Series [3] is described as follows: Metabolic stability and intrinsic clearance in rat hepatocytes. The series is classed as in vitro ADME. The following applies: cryopreserved rat hepatocytes (suspension), 1 uM compound, 37 C, read-out: rHeps CLint. As for the experimental part:
Stock solutions of compounds and control compounds were prepared in 10 mM in appropriate solvent, such as DMSO. L-15 medium was placed in a 37° C. water bath and allowed to warm for at least 15 minutes prior to use. A quenching plate was prepared by adding 80 μL of acetonitrile to each well of a 96-well plate. In a new 96-well plate, the 10 mM stock solution of test compounds and control compounds were diluted to 100 μM by combining 198 μL of acetonitrile and 2 μL of the 10 mM stock. A vial of cryopreserved rat hepatocytes were removed from storage and maintained at cryogenic temperatures until thawing. The cells were thawed as quickly as possible, in a 37° C. water bath under gentle shaking. The vials were kept in the water bath until all ice crystals have dissolved and are no longer visible. After the thawing was completed, the vials were sprayed with 70% ethanol and transferred to a biosafety cabinet. […]
Cells were then counted with Cellometer® Vision. […] Counted cells were then diluted with incubation medium to a working cell density of 1.0×10^6 viable cells/mL. […]
All calculations were carried out using Microsoft Excel. Peak areas were determined from extracted ion chromatograms. in vitro half-life (t½) of parent compound was determined by regression analysis of the Ln percent parent disappearance vs. time curve.

What is called IC50 is the midpoint of a concentration-inhibition curve. For `C[C@@H]1CC(F)(F)CN(C(=O)c2nn(C)cc2-c2ccc(Cl)cc2)[C@@H]1CNc1cnc(C(F)(F)F)cn1` [Compound 129, (4-(4-chlorophenyl)-1-methyl-1H-pyrazol-3-yl)((2S,3R)-5,5-difluoro-3-methyl-2-(((5-(trifluoromethyl)pyrazin-2-yl)amino)methyl)piperidin-1-yl)methanone], the half-inhibitory concentration (IC50) is 4 nM in series [1] and 3500 nM in series [2]. For the same compound, the hepatocyte CLint at 1 µM in series [3] worked out at 3.8 µL/min/1e6 cells.

For the compound `Cc1nc(C(=O)N2CC(F)(F)C[C@@H](C)[C@H]2CNc2ccc(C(F)(F)F)cn2)c(-c2ccc(F)cc2)s1` [Compound 185, ((2S,3R)-5,5-difluoro-3-methyl-2-(((5-(trifluoromethyl)pyridin-2-yl)amino)methyl)piperidin-1-yl)(5-(4-fluorophenyl)-2-methylthiazol-4-yl)methanone], the IC50 in series [1] is 2 nM; in series [2] it was greater than 5000 nM. Further, the hepatocyte CLint at 1 µM in series [3] came out at 107 µL/min/1e6 cells.
